Measured values from patent publication US8436195B2 (priority 2006, dated 2013).

Key:
[1] = test system: cancer cells PC-3 (prostate carcinoma); test: Mitochondria membranes of PC-3 cancer cells after incubation with preparation; format: cell-based; settings: PC-3 cells, diluted to 10^−5 mmol/l, 72 hours at 37° C.
Experimental: A control group was also formed consisting of the same number of vials with the same components except cancer cells, and instead, fibroblasts were put in the group vials. After thermostatting for 72 hours at 37° C. the contents of the above vials was analyzed.

[2] = water and alcohol; from Mashkovskiy, Medications; cited from earlier work

Row | Compound | state of mitochondria membranes [1] | solubility [2]
1 | COc1cccc2c1C(=O)c1c(O)c3c(c(O)c1C2=O)C[C@@](O)(C(=O)CO)C[C@@H]3O[C@H]1C[C@H](N)[C@H](O)[C@H](C)O1 [adriamycin] | membrane swelling | 
2 | O=c1[nH]cc(F)c(=O)[nH]1 [fluororacil] |  | poorly soluble in water and alcohol
